The record followed here is US20240317708A1, “INHIBITORS OF TRANSGLUTAMINASES” (ZEDIRA GMBH, priority 2021, published 2024).

The nature of data set [1]: Log D shake flask method (octanol / PBS pH 7.4, HPLC). Format: physicochemical. The conditions noted are these: octanol/phosphate-buffered saline (PBS); octanol / PBS pH 7.4, shake flask. Here is the method: In order to classify the inventive compounds according to their lipophilicity, Log D values (distribution coefficient) were determined by means of the well-established shake flask method, measuring the partition of a compound between an octanol and phosphate-buffered saline (PBS, pH 7.4) by HPLC.

The target of data set [2] is T1, recombinant human transglutaminase 2 (Homo sapiens, UniProt P21980).
T1 construct: purchased Zedira T022
T1 sequence (P21980 1-687): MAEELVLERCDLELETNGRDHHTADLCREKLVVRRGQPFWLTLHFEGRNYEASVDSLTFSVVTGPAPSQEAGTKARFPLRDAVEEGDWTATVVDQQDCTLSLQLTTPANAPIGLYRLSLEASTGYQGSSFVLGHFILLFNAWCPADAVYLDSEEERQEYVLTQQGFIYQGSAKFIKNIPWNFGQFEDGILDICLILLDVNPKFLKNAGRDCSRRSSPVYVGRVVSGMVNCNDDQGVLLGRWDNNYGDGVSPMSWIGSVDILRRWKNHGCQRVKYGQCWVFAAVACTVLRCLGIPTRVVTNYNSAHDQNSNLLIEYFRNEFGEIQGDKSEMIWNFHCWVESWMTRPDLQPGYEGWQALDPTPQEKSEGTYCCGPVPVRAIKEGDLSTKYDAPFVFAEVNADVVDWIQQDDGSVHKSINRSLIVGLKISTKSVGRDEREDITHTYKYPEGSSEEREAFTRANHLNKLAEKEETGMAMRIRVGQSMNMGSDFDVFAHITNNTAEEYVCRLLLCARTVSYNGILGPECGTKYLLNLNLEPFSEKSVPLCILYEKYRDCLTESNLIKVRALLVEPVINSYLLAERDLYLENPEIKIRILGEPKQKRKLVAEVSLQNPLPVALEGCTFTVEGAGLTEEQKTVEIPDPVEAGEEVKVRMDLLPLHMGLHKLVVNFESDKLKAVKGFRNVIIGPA
As to the kind of experiment: Transglutaminase assay (dansylcadaverine incorporation into dimethylcasein, DCC-assay). Format: biochemical. To be noted: recombinant human TG2 10 nM, dansylcadaverine/dimethylcasein, 37° C. Here is the method: For the determination of potency of inhibitors against tissue transglutaminase, the incorporation of dansylcadaverine into dimethylcasein (Zedira product T036, Lorand et al., Anal Biochem, 1971, 44:221-31) was measured using recombinant human transglutaminase 2 (Zedira Product T022).
The tissue transglutaminase is diluted in buffer (50 mM Tris-HCl, 7.5 mM CaCl2, 150 mM NaCl, pH=7.4). The final concentration of TG2 in the assay is 10 nM.
A 10 mM inhibitor stock solution is prepared in DMSO, and from this a serial 1:2-fold dilution series is prepared also in DMSO. Each of the initial dilutions is subsequently diluted 1:50-fold with buffer (50 mM Tris-HCl, 7.5 mM CaCl2, 150 mM NaCl, pH=7.4) to yield the final working dilutions containing 2% (v/v) DMSO.
15 μl of inhibitor working dilution are added per well of a 96 well microtiter plate. As control, 15 μl of a 2% (v/v) DMSO solution prepared using the buffer mentioned above are added per well.
Immediately before starting the assay, 600 μl transglutaminase working solution are added to 11.4 ml assay buffer (50 mM Tris-HCl, 10 mM CaCl2, 10 mM glutathione, 2.5% glycerol, 16.7 μM dansylcadaverine, 4 μM N,N-dimethylcasein, 200 mM NaCl, pH=8.0). 285 μl of this reaction mix are added per well containing the inhibitor.
Increase in fluorescence is measured using λex=330 nm and λem=500 nm at 37° C. for 30 min. A slope of the increase in fluorescence between 20 and 30 min is calculated for determination of the IC50 value (inhibitor concentration at which 50% of the initial activity is blocked).
Analysis of enzymatic activity is performed by calculation of the slope of an increase in fluorescence intensity. IC50 values are calculated by plotting the enzymatic activity (as percentage from control containing 2% DMSO instead of inhibitor) against the inhibitor concentration. IC50 is defined as the inhibitor concentration blocking 50% of initial enzyme activity.

Data set [3] can be described thus: Caco-2 permeability assay (CacoReady kit). To be noted: human. Format: in vitro ADME. The protocol: Permeability coefficients (Papp values) were obtained from Caco-2 barrier studies predicting oral/intestinal bioavailability of the tested compounds. The assays were performed by using CacoReady™ ready-to-use kits from ReadyCell according to the manufacturers protocol.
A general note: Caco-2 cells form a polarised layer with tight junctions and transporters.

As usually defined, the logD is the decadic logarithm of the distribution of all forms, ionised or not, between an organic phase and buffer at a given pH. Usually IC50 stands for the point on the concentration scale where inhibition reaches its midpoint. As a reminder, the Papp is the rate of passage across a membrane or cell layer, normalised by area and donor concentration.

Compound `COC(=O)/C=C/CC[C@H](NC(=O)c1c[nH]cn1)C(=O)Nc1cccn(CC(=O)NC2C3CC4CC(C3)CC2C4)c1=O` (stereo partly drawn) [III-28, (S,E)-methyl 6-(1H-imidazole-4-carboxamido)-7-(1-(2-(2-adamantylamino)-2-oxoethyl)-2-oxo-1,2-dihydropyridin-3-ylamino)-7-oxohept-2-enoate] gave a log distribution coefficient (logD) in data set [1] of 3 to 5. Also, the IC50 in data set [2] is 250 to 1500 nM. Besides, the Papp in data set [3] is under 1 ×10⁻⁶ cm/s.
The compound `COC(=O)/C=C/CC[C@H](NC(=O)[C@@H]1CCCCN1)C(=O)Nc1cccn(CC(=O)NC2C3CC4CC(C3)CC2C4)c1=O` (stereo partly drawn) [III-29, (S,E)-methyl 7-(1-(2-(2-adamantylamino)-2-oxoethyl)-2-oxo-1,2-dihydropyridin-3-ylamino)-7-oxo-6-((S)-piperidine-2-carboxamido)hept-2-enoate] yielded a log distribution coefficient (logD) in data set [1] of 3 to 5. Further, the IC50 in data set [2] fell in the range of 25 to 250 nM. This compound also yielded a Papp in data set [3] of under 1 ×10⁻⁶ cm/s.
Turning to `COC(=O)/C=C/CC[C@H](NC(=O)[C@@H]1CCCNC1)C(=O)Nc1cccn(CC(=O)NC2C3CC4CC(C3)CC2C4)c1=O` (stereo partly drawn) [III-30, (S,E)-methyl 7-(1-(2-(2-adamantylamino)-2-oxoethyl)-2-oxo-1,2-dihydropyridin-3-ylamino)-7-oxo-6-((R)-piperidine-3-carboxamido)hept-2-enoate], the logD in data set [1] was 3 to 5. Also, the IC50 in data set [2] was in the range of 25 to 250 nM. The same compound yielded a Papp in data set [3] of under 1 ×10⁻⁶ cm/s.
On the same counts, the results for `COC(=O)/C=C/CC[C@H](NC(=O)[C@H]1COCCN1)C(=O)Nc1cccn(CC(=O)NC2C3CC4CC(C3)CC2C4)c1=O` (stereo partly drawn) [III-31, (S,E)-methyl 7-(1-(2-(2-adamantylamino)-2-oxoethyl)-2-oxo-1,2-dihydropyridin-3-ylamino)-6-((R)-morpholine-3-carboxamido)-7-oxohept-2-enoate] are 1 to 3, 25 to 250 nM and under 1 ×10⁻⁶ cm/s.
As to `COC(=O)/C=C/CC[C@H](NC(=O)C1CN2CCC1CC2)C(=O)Nc1cccn(CC(=O)NC2C3CC4CC(C3)CC2C4)c1=O` (stereo partly drawn) [III-32, (S,E)-methyl 7-(1-(2-(2-adamantylamino)-2-oxoethyl)-2-oxo-1,2-dihydropyridin-3-ylamino)-7-oxo-6-(quinuclidine-3-carboxamido)hept-2-enoate], the logD in data set [1] lay in the range of 3 to 5. Further, the IC50 in data set [2] is 25 to 250 nM. The Papp in data set [3] was under 1 ×10⁻⁶ cm/s.
Consider `COC(=O)/C=C/CC[C@H](NC(=O)c1cc(C(=O)OC)cc([N+](=O)[O-])c1)C(=O)Nc1cccn(CC(=O)NC2C3CC4CC(C3)CC2C4)c1=O` (stereo partly drawn) [III-33, (S,E)-methyl 3-(1-(1-(2-(2-adamantylamino)-2-oxoethyl)-2-oxo-1,2-dihydropyridin-3-ylamino)-7-methoxy-1,7-dioxohept-5-en-2-ylcarbamoyl)-5-nitrobenzoate], for which the logD in data set [1] was 3 to 5. Further, in data set [2], the IC50 is under 25 nM. The same compound registered a Papp in data set [3] of under 1 ×10⁻⁶ cm/s.
On the same counts, the results for `COC(=O)/C=C/CC[C@H](NC(=O)c1cncc([N+](=O)[O-])c1)C(=O)Nc1cccn(CC(=O)NC2C3CC4CC(C3)CC2C4)c1=O` (stereo partly drawn) [III-34, (S,E)-methyl 7-(1-(2-(2-adamantylamino)-2-oxoethyl)-2-oxo-1,2-dihydropyridin-3-ylamino)-6-(5-nitronicotinamido)-7-oxohept-2-enoate] are 3 to 5, under 25 nM and under 1 ×10⁻⁶ cm/s.
For `COC(=O)/C=C/CC[C@H](NC(=O)c1cncc(C(=O)O)c1)C(=O)Nc1cccn(CC(=O)NC2C3CC4CC(C3)CC2C4)c1=O` (stereo partly drawn) [III-35, (S,E)-5-(1-(1-(2-(2-adamantylamino)-2-oxoethyl)-2-oxo-1,2-dihydropyridin-3-ylamino)-7-methoxy-1,7-dioxohept-5-en-2-ylcarbamoyl)nicotinic acid] the same measures were 3 to 5, under 25 nM and under 1 ×10⁻⁶ cm/s.
Turning to `COC(=O)/C=C/CC[C@H](NC(=O)c1cncc(C(=O)OC)c1)C(=O)Nc1cccn(CC(=O)NC2C3CC4CC(C3)CC2C4)c1=O` (stereo partly drawn) [III-36, (S,E)-methyl 5-(1-(1-(2-(2-adamantylamino)-2-oxoethyl)-2-oxo-1,2-dihydropyridin-3-ylamino)-7-methoxy-1,7-dioxohept-5-en-2-ylcarbamoyl)nicotinate], in data set [1], the logD is 3 to 5. Besides, the concentration for half-maximal inhibition (IC50) in data set [2] lay in the range of 25 to 250 nM. In addition, the apparent permeability coefficient (Papp) in data set [3] is under 1 ×10⁻⁶ cm/s.
For `COC(=O)/C=C/CC[C@H](NC(=O)c1oc2ccccc2c1C)C(=O)Nc1cccn(CC(=O)N(C)C2C3CC4CC(C3)CC2C4)c1=O` (stereo partly drawn) [III-37, (S,E)-methyl 7-(1-(2-(2-adamantyl(methyl)amino)-2-oxoethyl)-2-oxo-1,2-dihydropyridin-3-ylamino)-6-(3-methylbenzofuran-2-carboxamido)-7-oxohept-2-enoate] the same measures were 3 to 5, 25 to 250 nM and 1 to 10 ×10⁻⁶ cm/s.
For `COC(=O)/C=C/CC[C@H](NC(=O)c1oc2ccccc2c1C)C(=O)Nc1cccn(CC(=O)NC2C3CC4CC2CC(O)(C4)C3)c1=O` (stereo partly drawn) [III-38, (S,E)-methyl 7-(1-(2-(5-hydroxyadamantan-2-amino)-2-oxoethyl)-2-oxo-1,2-dihydropyridin-3-ylamino)-6-(3-methylbenzofuran-2-carboxamido)-7-oxohept-2-enoate] the same measures were 1 to 3, 25 to 250 nM and under 1 ×10⁻⁶ cm/s.
For `COC(=O)/C=C/CC[C@H](NC(=O)c1oc2ccccc2c1C)C(=O)Nc1cccn(CC(=O)NC2C3CC4CC2CC(F)(C4)C3)c1=O` (stereo partly drawn) [III-39, (S,E)-methyl 7-(1-(2-(5-fluoroadamantan-2-amino)-2-oxoethyl)-2-oxo-1,2-dihydropyridin-3-ylamino)-6-(3-methylbenzofuran-2-carboxamido)-7-oxohept-2-enoate] the same measures were 3 to 5, under 25 nM and 1 to 10 ×10⁻⁶ cm/s.
For `COC(=O)/C=C/CC[C@H](NC(=O)c1oc2ccccc2c1C)C(=O)Nc1cccn(CC(=O)NC2C3CC4CC2CC(Cl)(C4)C3)c1=O` (stereo partly drawn) [III-40, (S,E)-methyl 7-(1-(2-(5-chloroadamantan-2-amino)-2-oxoethyl)-2-oxo-1,2-dihydropyridin-3-ylamino)-6-(3-methylbenzofuran-2-carboxamido)-7-oxohept-2-enoate], the logD in data set [1] lay in the range of 3 to 5. Besides, in data set [2], the IC50 is under 25 nM. The same compound had a Papp in data set [3] of 1 to 10 ×10⁻⁶ cm/s.
For `COC(=O)/C=C/CC[C@H](NC(=O)c1oc2ccccc2c1C)C(=O)Nc1cccn(CC(=O)NC2C3CC4CC2CC(Br)(C4)C3)c1=O` (stereo partly drawn) [III-41, (S,E)-methyl 7-(1-(2-(5-bromoadamantan-2-amino)-2-oxoethyl)-2-oxo-1,2-dihydropyridin-3-ylamino)-6-(3-methylbenzofuran-2-carboxamido)-7-oxohept-2-enoate], in data set [1], the log distribution coefficient (logD) was 3 to 5. Also, in data set [2], the concentration for half-maximal inhibition (IC50) was under 25 nM. In addition, the Papp in data set [3] lay within 1 to 10 ×10⁻⁶ cm/s.
For `COC(=O)/C=C/CC[C@H](NC(=O)c1oc2ccccc2c1C)C(=O)Nc1cccn(CC(=O)NC2C3CC4CC2CC(C)(C4)C3)c1=O` (stereo partly drawn) [III-42, (S,E)-methyl 7-(1-(2-(5-methyladamantan-2-amino)-2-oxoethyl)-2-oxo-1,2-dihydropyridin-3-ylamino)-6-(3-methylbenzofuran-2-carboxamido)-7-oxohept-2-enoate], the logD in data set [1] was 3 to 5. Further, the IC50 in data set [2] is under 25 nM. Moreover, the Papp in data set [3] was in the range of 1 to 10 ×10⁻⁶ cm/s.
